The test concerns the target CREBBP (Homo sapiens (Human), UniProt Q92793). Description: In vitro enzyme inhibition assay - CREBBP inhibition (AlphaScreen, biotinylated H4-tetraacetyl peptide). It counts as binding. The following applies: Table 28; AlphaScreen, H4-tetraacetyl peptide. The method, then: Determination of the IC50 for the CREBBP inhibitors disclosed herein was performed as follows: CREBBP was cloned and expressed in E. Coli as His-tag protein and purified by Nickel affinity and gel-filtration chromatography. […] CREBBP binding and inhibition was assessed by monitoring the interaction of biotinylated H4-tetraacetyl peptide (AnaSpec, H4K5/8/12/16(Ac), biotin-labeled) with the target using the AlphaScreen technology (Perkin Elmer). In a 384-well ProxiPlate CREBBP (50 nM final) was combined with peptide (20 nM final) in 50 mM HEPES (pH 7.3), 10 mM NaCl, 0.25 mM TCEP, 0.1% (w/v) BSA, and 0.005% (w/v) Brij-35 either in the presence of DMSO (final 0.4% DMSO) or compound dilution series in DMSO. After 20-minute incubation at room temperature, Alpha streptavidin donor beads and Nickel Chelate acceptor beads were added to a final concentration of 5 μg/mL. After two hours of equilibration, plates were read on an Envision instrument and the IC50 was calculated using a four parameter non-linear curve fit.
The ability of the compounds disclosed herein to inhibit CBP activity was quantified and the respective IC50 value was determined.
Background: Alpha assays give light when donor and acceptor beads are brought close together.

A value given as a limit tells only on which side of the number the result lay.

From US10202360B2 (CELGENE QUANTICEL RESEARCH, INC., priority 2016, dated 2019) come the findings set out here.

Sequence of CREBBP (Q92793 1081-1197): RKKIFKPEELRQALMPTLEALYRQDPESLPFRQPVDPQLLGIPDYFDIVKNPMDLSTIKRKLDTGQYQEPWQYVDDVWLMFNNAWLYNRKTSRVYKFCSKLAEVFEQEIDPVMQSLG

By IC50 is commonly meant the concentration at which inhibition is half-maximal. Lower therefore signals higher potency. In turn, `CCCCn1cc(-c2cc(NS(=O)(=O)C(C)C)nc(Oc3ccc(F)cc3F)n2)cc(C)c1=O` [Example 46, Propane-2-sulfonic acid [6-(1-butyl-5-methyl-6-oxo-1,6-dihydro-pyridin-3-yl)-2-(2,4-difluoro-phenoxy)-pyrimidin-4-yl]-amide] had an IC50 greater than 5000 nM.
Molecule `Cc1cc(-c2cc(NS(=O)(=O)C(C)C)nc(Oc3ccc(F)cc3F)n2)cn(C(C)C)c1=O` [Example 47, Propane-2-sulfonic acid [2-(2,4-difluoro-phenoxy)-6-(1-isopropyl-5-methyl-6-oxo-1,6-dihydro-pyridin-3-yl)-pyrimidin-4-yl]-amide] came in with an IC50 of 500 to 5000 nM.
For the molecule `Cc1cc(-c2cc(NS(=O)(=O)C(C)C)nc(Oc3ccc(F)cc3F)n2)cn(CC(C)C)c1=O` [Example 48, Propane-2-sulfonic acid [2-(2,4-difluoro-phenoxy)-6-(1-isobutyl-5-methyl-6-oxo-1,6-dihydro-pyridin-3-yl)-pyrimidin-4-yl]-amide], the IC50 is greater than 5000 nM.
With `Cc1cc(-c2cc(NS(=O)(=O)C(C)C)nc(Oc3ccc(F)cc3F)n2)cn(CC2CC2)c1=O` [Example 49, Propane-2-sulfonic acid [6-(1-cyclopropylmethyl-5-methyl-6-oxo-1,6-dihydro-pyridin-3-yl)-2-(2,4-difluoro-phenoxy)-pyrimidin-4-yl]-amide], the IC50 was less than 500 nM.
For `Cc1cc(-c2cc(NS(=O)(=O)C(C)C)nc(Oc3ccc(F)cc3F)n2)cn(CC2CCC2)c1=O` [Example 50, Propane-2-sulfonic acid [6-(1-cyclobutylmethyl-5-methyl-6-oxo-1,6-dihydro-pyridin-3-yl)-2-(2,4-difluoro-phenoxy)-pyrimidin-4-yl]-amide], the IC50 was greater than 5000 nM.
`CC(=O)OCCn1cc(-c2cc(NS(=O)(=O)C(C)C)nc(Oc3ccc(F)cc3F)n2)cc(C)c1=O` [Example 51, Acetic acid 2-{5-[2-(2,4-difluoro-phenoxy)-6-(propane-2-sulfonylamino)-pyrimidin-4-yl]-3-methyl-2-oxo-2H-pyridin-1-yl}-ethyl ester] came in with a half-inhibitory concentration (IC50) of 500 to 5000 nM.
With `Cc1cc(-c2cc(NS(=O)(=O)C(C)C)nc(Oc3ccc(F)cc3F)n2)cn(CC(F)(F)F)c1=O` [Example 52, Propane-2-sulfonic acid {2-(2,4-difluoro-phenoxy)-6-[5-methyl-6-oxo-1-(2,2,2-trifluoro-ethyl)-1,6-dihydro-pyridin-3-yl]-pyrimidin-4-yl}-amide] the figure was 500 to 5000 nM; with `COCCn1cc(-c2cc(NS(=O)(=O)C(C)C)nc(Oc3ccc(F)cc3F)n2)cc(C)c1=O` [Example 53, Propane-2-sulfonic acid {2-(2,4-difluoro-phenoxy)-6-[1-(2-methoxy-ethyl)-5-methyl-6-oxo-1,6-dihydro-pyridin-3-yl]-pyrimidin-4-yl}-amide], 500 to 5000 nM; with `CCCS(=O)(=O)Nc1cc(-c2cc(C)c(=O)n(C3CC3)c2)nc(Oc2c(C)cccc2C)n1` [Example 54, Propane-1-sulfonic acid [6-(1-cyclopropyl-5-methyl-6-oxo-1,6-dihydro-pyridin-3-yl)-2-(2,6-dimethyl-phenoxy)-pyrimidin-4-yl]-amide], 500 to 5000 nM.
With `CCCS(=O)(=O)Nc1cc(-c2cc(C)c(=O)n(C3COC3)c2)nc(Oc2c(C)cccc2C)n1` [Example 55, Propane-1-sulfonic acid [2-(2,6-dimethyl-phenoxy)-6-(5-methyl-1-oxetan-3-yl-6-oxo-1,6-dihydro-pyridin-3-yl)-pyrimidin-4-yl]-amide] the figure was 500 to 5000 nM.
With `CCCCS(=O)(=O)Nc1cc(Oc2c(C)cccc2C)nc(-c2cc(C)c(=O)n(C)c2)n1` [Example 56, Butane-1-sulfonic acid [2-(1,5-dimethyl-6-oxo-1,6-dihydro-pyridin-3-yl)-6-(2,6-dimethyl-phenoxy)-pyrimidin-4-yl]-amide] the figure was less than 500 nM; with `Cc1cc(-c2cc(NS(=O)(=O)C(C)C)nc(Oc3cccc4ccn(C)c34)n2)cn(C)c1=O` [Example 57, Propane-2-sulfonic acid [6-(1,5-dimethyl-6-oxo-1,6-dihydro-pyridin-3-yl)-2-(1-methyl-1H-indol-7-yloxy)-pyrimidin-4-yl]-amide], less than 500 nM.
In turn, `Cc1cc2c(Oc3nc(NS(=O)(=O)C(C)C)cc(-c4cc(C)c(=O)n(C)c4)n3)cccc2o1` [Example 58, N-(6-(1,5-dimethyl-6-oxo-1,6-dihydropyridin-3-yl)-2-((2-methylbenzofuran-4-yl)oxy)pyrimidin-4-yl)propane-2-sulfonamide] had an IC50 of less than 500 nM.
Next, `Cc1cc(-c2cc(NS(=O)(=O)C(C)C)nc(Oc3cccc4occc34)n2)cn(C)c1=O` [Example 59, N-(2-(benzofuran-4-yloxy)-6-(1,5-dimethyl-6-oxo-1,6-dihydropyridin-3-yl)pyrimidin-4-yl)propane-2-sulfonamide]: less than 500 nM.
Next, `CCCS(=O)(=O)Nc1cc(Oc2c(C)cc(Cl)cc2Cl)nc(-c2cc(C)c(=O)n(C)c2)n1` [Example 60, Propane-1-sulfonic acid [6-(2,4-dichloro-6-methyl-phenoxy)-2-(1,5-dimethyl-6-oxo-1,6-dihydro-pyridin-3-yl)-pyrimidin-4-yl]-amide]: less than 500 nM; `Cc1cc(-c2cc(NS(C)(=O)=O)nc(Oc3ccc(F)cc3F)n2)cn(C)c1=O` [Example 61, N-(2-(2,4-difluorophenoxy)-6-(1,5-dimethyl-6-oxo-1,6-dihydropyridin-3-yl)pyrimidin-4-yl)methanesulfonamide]: less than 500 nM.
With `Cc1cc(-c2cc(NS(=O)(=O)C(C)C)nc(Oc3ccc(F)cc3F)n2)cn(C)c1=O` [Example 62, N-(2-(2,4-difluorophenoxy)-6-(1,5-dimethyl-6-oxo-1,6-dihydropyridin-3-yl)pyrimidin-4-yl)propane-2-sulfonamide] the figure was less than 500 nM; with `Cc1cc(-c2cc(NS(=O)(=O)C3CC3)nc(Oc3ccc(F)cc3F)n2)cn(C)c1=O` [Example 63, N-(2-(2,4-difluorophenoxy)-6-(1,5-dimethyl-6-oxo-1,6-dihydropyridin-3-yl)pyrimidin-4-yl)cyclopropanesulfonamide], less than 500 nM.
Regarding `CCCCS(=O)(=O)Nc1cc(-c2cc(C)c(=O)n(C)c2)nc(Oc2ccc(F)cc2F)n1` [Example 64, N-(2-(2,4-difluorophenoxy)-6-(1,5-dimethyl-6-oxo-1,6-dihydropyridin-3-yl)pyrimidin-4-yl)butane-1-sulfonamide], the IC50 was less than 500 nM.
Consider `Cc1cc(-c2cc(NS(=O)(=O)C(C)(C)C)nc(Oc3ccc(F)cc3F)n2)cn(C)c1=O` [Example 65, N-(2-(2,4-difluorophenoxy)-6-(1,5-dimethyl-6-oxo-1,6-dihydropyridin-3-yl)pyrimidin-4-yl)-2-methylpropane-2-sulfonamide], for which the IC50 is less than 500 nM.
With `Cc1cc(F)ccc1Oc1nc(NS(=O)(=O)C(C)C)cc(-c2cc(C)c(=O)n(C)c2)n1` [Example 67, N-(6-(1,5-dimethyl-6-oxo-1,6-dihydropyridin-3-yl)-2-(4-fluoro-2-methylphenoxy)pyrimidin-4-yl)propane-2-sulfonamide] the figure was less than 500 nM.
With `COc1ccc(Oc2nc(NS(=O)(=O)C(C)C)cc(-c3cc(C)c(=O)n(C)c3)n2)cc1Cl` [Example 68, N-(2-(3-chloro-4-methoxyphenoxy)-6-(1,5-dimethyl-6-oxo-1,6-dihydropyridin-3-yl)pyrimidin-4-yl)propane-2-sulfonamide] the figure was less than 500 nM.
